Tests used:
[1] = cn = amount concentration of the nth substance listed, in mol/dm3; conditions: 298.15 K, 101.3 kPa, Liquid, Wayne-Kerr 6430B Auto Balance Bridge
[2] = mn = molality of the nth substance listed, in mol/kg; conditions: 298.15 K, 101.3 kPa, Liquid, Vibrating tube method

CCCCCCCCCCn1cc[n+](C)c1.[Br-] [1-decyl-3-methylimidazolium bromide] + OCCO
Conditions | mass density [kg/m3] | molar conductivity [S·m2/mol]
[1], c1 = 0.0003546 | – | 0.000667
[1], c1 = 0.0004359 | – | 0.000666
[1], c1 = 0.0005147 | – | 0.000664
[1], c1 = 0.0005865 | – | 0.000663
[1], c1 = 0.0006739 | – | 0.000661
[1], c1 = 0.0007633 | – | 0.00066
[1], c1 = 0.0008415 | – | 0.000659
[1], c1 = 0.0009056 | – | 0.000658
[1], c1 = 0.0009847 | – | 0.000657
[1], c1 = 0.001065 | – | 0.000656
[2], m1 = 0.005851 | 1109.99 | –
[2], m1 = 0.0106 | 1110 | –
[2], m1 = 0.01551 | 1110 | –
[2], m1 = 0.01977 | 1110.01 | –
[2], m1 = 0.02479 | 1110.01 | –
[2], m1 = 0.02646 | 1110.02 | –
[2], m1 = 0.03544 | 1110.02 | –
[2], m1 = 0.03722 | 1110.02 | –
[2], m1 = 0.04453 | 1110.03 | –

CCCCCCCCCCCCn1cc[n+](C)c1.[Br-] [1-dodecyl-3-methylimidazolium bromide] + OCCO
Conditions | mass density [kg/m3] | molar conductivity [S·m2/mol]
[1], c1 = 0.000348 | – | 0.000654
[1], c1 = 0.0004233 | – | 0.000653
[1], c1 = 0.0004995 | – | 0.000652
[1], c1 = 0.0005785 | – | 0.00065
[1], c1 = 0.0006521 | – | 0.000649
[1], c1 = 0.0007213 | – | 0.000648
[1], c1 = 0.0008076 | – | 0.000646
[1], c1 = 0.0008687 | – | 0.000645
[1], c1 = 0.0009337 | – | 0.000644
[1], c1 = 0.001012 | – | 0.000643
[2], m1 = 0.003873 | 1109.91 | –
[2], m1 = 0.007663 | 1109.87 | –
[2], m1 = 0.01013 | 1109.85 | –
[2], m1 = 0.0133 | 1109.82 | –
[2], m1 = 0.0168 | 1109.78 | –
[2], m1 = 0.02023 | 1109.75 | –
[2], m1 = 0.03123 | 1109.63 | –
[2], m1 = 0.03429 | 1109.6 | –

CCCCCCCCn1cc[n+](C)c1.[Br-] [1-methyl-3-octylimidazolium bromide] + C[S+](C)[O-]
Conditions | mass density [kg/m3] | molar conductivity [S·m2/mol]
[1], c1 = 0.0002816 | – | 0.003566
[1], c1 = 0.0003649 | – | 0.003551
[1], c1 = 0.0004495 | – | 0.00354
[1], c1 = 0.0005343 | – | 0.003529
[1], c1 = 0.000601 | – | 0.003521
[1], c1 = 0.000699 | – | 0.00351
[1], c1 = 0.0007785 | – | 0.003501
[1], c1 = 0.0008592 | – | 0.003493
[1], c1 = 0.0009426 | – | 0.003485
[2], m1 = 0.003697 | 1095.43 | –
[2], m1 = 0.007705 | 1095.54 | –
[2], m1 = 0.01147 | 1095.63 | –
[2], m1 = 0.01568 | 1095.74 | –
[2], m1 = 0.01953 | 1095.84 | –
[2], m1 = 0.02373 | 1095.95 | –
[2], m1 = 0.02785 | 1096.05 | –
[2], m1 = 0.03185 | 1096.15 | –
[2], m1 = 0.03581 | 1096.25 | –
[2], m1 = 0.03956 | 1096.34 | –

CCCCCCCCCCCCn1cc[n+](C)c1.[Br-] [1-dodecyl-3-methylimidazolium bromide] + C[S+](C)[O-]
Conditions | mass density [kg/m3] | molar conductivity [S·m2/mol]
[1], c1 = 0.0003026 | – | 0.003442
[1], c1 = 0.0003758 | – | 0.003429
[1], c1 = 0.0004555 | – | 0.003416
[1], c1 = 0.0005343 | – | 0.003406
[1], c1 = 0.0006078 | – | 0.003397
[1], c1 = 0.0006771 | – | 0.003389
[1], c1 = 0.0007464 | – | 0.003381
[1], c1 = 0.0008059 | – | 0.003374
[1], c1 = 0.0009021 | – | 0.003365
[2], m1 = 0.00268 | 1095.36 | –
[2], m1 = 0.004967 | 1095.36 | –
[2], m1 = 0.007868 | 1095.37 | –
[2], m1 = 0.01038 | 1095.38 | –
[2], m1 = 0.01304 | 1095.39 | –
[2], m1 = 0.016 | 1095.41 | –
[2], m1 = 0.01873 | 1095.42 | –
[2], m1 = 0.02082 | 1095.43 | –
[2], m1 = 0.02457 | 1095.44 | –
[2], m1 = 0.02736 | 1095.46 | –

CCCCCCCCCCn1cc[n+](C)c1.[Br-] [1-decyl-3-methylimidazolium bromide] + CN(C)C=O
Conditions | mass density [kg/m3] | molar conductivity [S·m2/mol]
[1], c1 = 0.0001732 | – | 0.007794
[1], c1 = 0.0002484 | – | 0.007742
[1], c1 = 0.0003119 | – | 0.007708
[1], c1 = 0.0003859 | – | 0.007672
[1], c1 = 0.0004585 | – | 0.007636
[1], c1 = 0.0005275 | – | 0.007607
[1], c1 = 0.0005939 | – | 0.007575
[1], c1 = 0.0006636 | – | 0.007549
[1], c1 = 0.0007275 | – | 0.007523
[1], c1 = 0.0007761 | – | 0.007502
[2], m1 = 0.004548 | 944.601 | –
[2], m1 = 0.009331 | 944.904 | –
[2], m1 = 0.01416 | 945.206 | –
[2], m1 = 0.01889 | 945.493 | –
[2], m1 = 0.02351 | 945.774 | –
[2], m1 = 0.02843 | 946.065 | –
[2], m1 = 0.03329 | 946.353 | –
[2], m1 = 0.03813 | 946.64 | –
[2], m1 = 0.04346 | 946.942 | –
[2], m1 = 0.04852 | 947.237 | –

CN(C)C=O [dimethylformamide] + CCCCCCCCCCn1cc[n+](C)c1.[Br-]
Conditions | mass density [kg/m3]
[2], m2 = 0 | 944.305

CCCCCCCCn1cc[n+](C)c1.[Br-] [1-methyl-3-octylimidazolium bromide] + CN(C)C=O
Conditions | mass density [kg/m3] | molar conductivity [S·m2/mol]
[1], c1 = 0.0002813 | – | 0.007841
[1], c1 = 0.0003412 | – | 0.007808
[1], c1 = 0.0003997 | – | 0.007775
[1], c1 = 0.0004885 | – | 0.007732
[1], c1 = 0.0005571 | – | 0.0077
[1], c1 = 0.0006412 | – | 0.007663
[1], c1 = 0.0007099 | – | 0.007638
[1], c1 = 0.0007743 | – | 0.007612
[1], c1 = 0.000834 | – | 0.00759
[1], c1 = 0.0008925 | – | 0.007568
[2], m1 = 0.0036 | 944.562 | –
[2], m1 = 0.00742 | 944.824 | –
[2], m1 = 0.01114 | 945.075 | –
[2], m1 = 0.01485 | 945.316 | –
[2], m1 = 0.01862 | 945.557 | –
[2], m1 = 0.02243 | 945.792 | –
[2], m1 = 0.02634 | 946.03 | –
[2], m1 = 0.03009 | 946.26 | –
[2], m1 = 0.03685 | 946.653 | –
[2], m1 = 0.04079 | 946.877 | –

C[S+](C)[O-] [dimethyl sulfoxide] + CCCCCCCCCCn1cc[n+](C)c1.[Br-]
Conditions | mass density [kg/m3]
[2], m2 = 0 | 1095.33

CN(C)C=O [dimethylformamide] + CCCCCCCCCCCCn1cc[n+](C)c1.[Br-]
Conditions | mass density [kg/m3]
[2], m2 = 0 | 944.305

CCCCCCCCCCCCn1cc[n+](C)c1.[Br-] [1-dodecyl-3-methylimidazolium bromide] + CN(C)C=O
Conditions | mass density [kg/m3] | molar conductivity [S·m2/mol]
[1], c1 = 0.0001357 | – | 0.007691
[1], c1 = 0.0001826 | – | 0.007656
[1], c1 = 0.0002263 | – | 0.007631
[1], c1 = 0.0002718 | – | 0.007605
[1], c1 = 0.0003169 | – | 0.007581
[1], c1 = 0.0003578 | – | 0.007564
[1], c1 = 0.0004043 | – | 0.007541
[1], c1 = 0.0004399 | – | 0.007527
[1], c1 = 0.0004725 | – | 0.00751
[1], c1 = 0.0005219 | – | 0.007494
[2], m1 = 0.003861 | 944.545 | –
[2], m1 = 0.008055 | 944.798 | –
[2], m1 = 0.0123 | 945.047 | –
[2], m1 = 0.01627 | 945.277 | –
[2], m1 = 0.02032 | 945.508 | –
[2], m1 = 0.02446 | 945.745 | –
[2], m1 = 0.02703 | 945.89 | –
[2], m1 = 0.03337 | 946.237 | –
[2], m1 = 0.03725 | 946.45 | –
[2], m1 = 0.04099 | 946.651 | –

C[S+](C)[O-] [dimethyl sulfoxide] + CCCCCCCCn1cc[n+](C)c1.[Br-]
Conditions | mass density [kg/m3]
[2], m2 = 0 | 1095.33

CCCCCCCCn1cc[n+](C)c1.[Br-] [1-methyl-3-octylimidazolium bromide] + OCCO
Conditions | mass density [kg/m3] | molar conductivity [S·m2/mol]
[1], c1 = 0.0003384 | – | 0.000678
[1], c1 = 0.0004129 | – | 0.000677
[1], c1 = 0.0004841 | – | 0.000675
[1], c1 = 0.0005608 | – | 0.000674
[1], c1 = 0.0006367 | – | 0.000673
[1], c1 = 0.0007095 | – | 0.000672
[1], c1 = 0.0007842 | – | 0.000671
[1], c1 = 0.0008592 | – | 0.00067
[1], c1 = 0.0009615 | – | 0.000669
[1], c1 = 0.001054 | – | 0.000668
[2], m1 = 0.006765 | 1110.04 | –
[2], m1 = 0.007869 | 1110.06 | –
[2], m1 = 0.01325 | 1110.12 | –
[2], m1 = 0.0167 | 1110.22 | –
[2], m1 = 0.02074 | 1110.25 | –
[2], m1 = 0.02364 | 1110.34 | –
[2], m1 = 0.03075 | 1110.39 | –
[2], m1 = 0.03492 | 1110.42 | –
[2], m1 = 0.03798 | 1110.48 | –

CN(C)C=O [dimethylformamide] + CCCCCCCCn1cc[n+](C)c1.[Br-]
Conditions | mass density [kg/m3]
[2], m2 = 0 | 944.305

C[S+](C)[O-] [dimethyl sulfoxide] + CCCCCCCCCCCCn1cc[n+](C)c1.[Br-]
Conditions | mass density [kg/m3]
[2], m2 = 0 | 1095.35

CCCCCCCCCCn1cc[n+](C)c1.[Br-] [1-decyl-3-methylimidazolium bromide] + C[S+](C)[O-]
Conditions | mass density [kg/m3] | molar conductivity [S·m2/mol]
[1], c1 = 0.0002071 | – | 0.003508
[1], c1 = 0.0003447 | – | 0.003485
[1], c1 = 0.0004551 | – | 0.003472
[1], c1 = 0.000577 | – | 0.003459
[1], c1 = 0.0006934 | – | 0.003446
[1], c1 = 0.0008066 | – | 0.003433
[1], c1 = 0.0008974 | – | 0.003426
[1], c1 = 0.001043 | – | 0.003413
[1], c1 = 0.001234 | – | 0.003397
[2], m1 = 0.005147 | 1095.4 | –
[2], m1 = 0.00868 | 1095.45 | –
[2], m1 = 0.01336 | 1095.53 | –
[2], m1 = 0.01682 | 1095.59 | –
[2], m1 = 0.02087 | 1095.65 | –
[2], m1 = 0.02779 | 1095.77 | –
[2], m1 = 0.03347 | 1095.87 | –
[2], m1 = 0.04096 | 1096 | –
[2], m1 = 0.04462 | 1096.07 | –
[2], m1 = 0.05299 | 1096.22 | –
